According to patent US20220235065A1 (Epizyme, Inc., priority 2016, published 2022):
Structures can show the parent of a compound that is named as a salt.

What was measured:
[1] = target: T1, EHMT1 (Homo sapiens, UniProt Q9H9B1); experiment: EHMT1 PEP (EHMT1 peptide enzyme assay); type: biochemical; details: peptide substrate enzyme assay
T1 sequence (Q9H9B1 1-1298): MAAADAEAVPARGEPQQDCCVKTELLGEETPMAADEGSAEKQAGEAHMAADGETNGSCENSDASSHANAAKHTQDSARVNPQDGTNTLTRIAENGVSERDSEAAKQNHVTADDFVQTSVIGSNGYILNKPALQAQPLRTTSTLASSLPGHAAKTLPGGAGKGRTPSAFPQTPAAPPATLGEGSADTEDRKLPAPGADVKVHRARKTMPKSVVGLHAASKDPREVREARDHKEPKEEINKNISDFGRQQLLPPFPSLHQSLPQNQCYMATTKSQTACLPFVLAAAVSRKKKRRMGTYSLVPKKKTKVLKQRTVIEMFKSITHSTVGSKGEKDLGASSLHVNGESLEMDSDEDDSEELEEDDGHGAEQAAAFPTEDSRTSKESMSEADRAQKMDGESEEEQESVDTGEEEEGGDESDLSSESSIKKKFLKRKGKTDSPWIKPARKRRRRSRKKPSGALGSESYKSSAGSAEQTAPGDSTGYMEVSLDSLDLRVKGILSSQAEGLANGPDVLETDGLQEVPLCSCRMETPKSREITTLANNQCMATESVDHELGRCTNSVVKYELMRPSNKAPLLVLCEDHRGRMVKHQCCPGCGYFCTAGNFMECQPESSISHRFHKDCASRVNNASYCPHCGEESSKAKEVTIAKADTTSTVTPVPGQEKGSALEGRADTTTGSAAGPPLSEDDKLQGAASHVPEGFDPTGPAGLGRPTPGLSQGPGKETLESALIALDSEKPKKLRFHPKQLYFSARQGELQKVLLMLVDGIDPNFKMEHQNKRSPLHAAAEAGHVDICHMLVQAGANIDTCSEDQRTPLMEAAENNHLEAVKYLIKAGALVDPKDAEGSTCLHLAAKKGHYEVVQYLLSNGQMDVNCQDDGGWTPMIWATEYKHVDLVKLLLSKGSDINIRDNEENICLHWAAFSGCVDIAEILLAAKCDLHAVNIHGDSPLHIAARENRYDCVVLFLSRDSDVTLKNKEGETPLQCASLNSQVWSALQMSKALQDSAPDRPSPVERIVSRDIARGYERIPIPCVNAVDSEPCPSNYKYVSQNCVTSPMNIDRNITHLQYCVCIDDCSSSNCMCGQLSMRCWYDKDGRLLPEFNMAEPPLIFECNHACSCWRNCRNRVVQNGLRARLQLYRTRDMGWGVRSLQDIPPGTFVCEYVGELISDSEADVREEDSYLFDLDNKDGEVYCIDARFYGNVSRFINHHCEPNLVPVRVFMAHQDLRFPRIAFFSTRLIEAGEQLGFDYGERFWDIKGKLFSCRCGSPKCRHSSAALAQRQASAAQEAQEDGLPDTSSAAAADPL

[2] = tested on: H3K9me2 in MDA-MB-231 cells; experiment: MDA-MB-231 H3K9me2 in-cell western assay; type: cell-based; details: Homo sapiens, read-out: EHMT2 ICW (IC50 μM)
Description: MDA-MB-231 cell line was purchased from ATCC (Manassas, Va., USA). RPMI/Glutamax medium, Penicillin-Streptomycin, Heat Inactivated Fetal Bovine Serum, and D-PBS were purchased from Life Technologies (Grand Island, N.Y., USA). Odyssey blocking buffer, 800CW goat anti-mouse IgG (H+L) antibody, and Licor Odyssey Infrared Scanner were purchased from Licor Biosciences, Lincoln, Nebr., USA. H3K9me2 mouse monoclonal antibody (Cat #1220) was purchased from Abcam (Cambridge, Mass., USA). 16% Paraformaldehyde was purchased from Electron Microscopy Sciences, Hatfield, Pa., USA). MDA-MB-231 cells were maintained in complete growth medium (RPMI supplemented with 10% v/v heat inactivated fetal bovine serum) and cultured at 37° C. under 5% CO2. UNC0638 was purchased from Sigma-Aldrich (St. Louis, Mo., USA).
General Procedure for MDA-MB-231 HEK9me2 In-Cell Western Assay.
Compound (100 nL) was added directly to 384-well cell plate. MDA-MB-231 cells (ATCC) were seeded in assay medium (RPMI/Glutamax supplemented with 10% v/v heat inactivated fetal bovine serum and 1% Penicillin/Streptomycin, Life Technologies) at a concentration of 3,000 cells per well to a Poly-D-Lysine coated 384-well cell culture plate with 50 μL per well. Plates were incubated at 37° C., 5% CO2 for 48 hours (BD Biosciences 356697). Plates were incubated at room temperature for 30 minutes and then incubated at 37° C., 5% CO2 for additional 48 hours. After the incubation, 50 μL per well of 8% paraformaldehyde (Electron Microscopy Sciences) in PBS was added to the plates and incubated at room temperature for 20 minutes. Plates were transferred to a Biotek 406 plate washer and washed 2 times with 100 μL per well of wash buffer (1×PBS containing 0.3% Triton X-100 (v/v)). Next, 60 μL per well of Odyssey blocking buffer (Licor Biosciences) was added to each plate and incubated for 1 hour at room temperature. Blocking buffer was removed and 20 μL of monoclonal primary antibody α-H3K9me2 (Abcam) diluted 1:800 in Odyssey buffer with 0.1% Tween 20 (v/v) were added and plates were incubated overnight (16 hours) at 4° C. Plates were washed 5 times with 100 μL per well of wash buffer. Next 20 μL per well of secondary antibody was added (1:500 800CW […] anti-mouse IgG (H+L) antibody (Licor Biosciences), 1:1000 DRAQ5 (Cell Signaling Technology) in Odyssey buffer with 0.1% Tween 20 (v/v)) and incubated for 1 hour at room temperature. The plates were washed 5 times with 100 μL per well wash buffer then 2 times with 100 μL per well of water. Plates were allowed to dry at room temperature then imaged on a Licor Odyssey Infrared Scanner (Licor Biosciences) which measured integrated intensity at 700 nm and 800 nm wavelengths. Both 700 and 800 channels were scanned.
% Inhibition Calculation.
First, the ratio for each well was determined by
Each plate included fourteen control wells of DMSO only treatment (Minimum Inhibition) as well as fourteen control wells (background wells) for maximum inhibition treated with control compound UNC0638 (Background wells).
The average of the ratio values for each well was calculated and used to determine the percent inhibition for each test well in the plate. Control compound was serially diluted three-fold in DMSO for a total of 10 test concentrations beginning at 1 μM. Percent inhibition was calculated as: […]
IC50 curves were generated using triplicate wells per concentration of compound. The IC50 is the concentration of compound at which measured methylation is inhibited by 50% as interpolated from the dose response curves. IC50 values were calculated using a non-linear regression (variable slope-four parameter fit model) with by the following formula
where Top is fixed at 100% and Bottom is fixed to 0%, [I]=concentration of inhibitor, IC50=half maximal inhibitory concentration and n=Hill Slope.

SMILES	IC50 [1] [µM]	IC50 [2] [µM]
COc1cc(NC2CCNCC2)ncc1-c1cc2ccncc2[nH]1 [Compound 205]	1 to 10	> 10
CNc1cc(C)nc(Nc2ccc(OC)c(-n3cc(C(C)(C)NC)nn3)c2)n1 [Compound 166]	1 to 10	> 10
CNc1cc(C)nc(Nc2ccc(OC)c(-n3ncc4c3CCN(C)C4)c2)n1 [Compound 10]	0.1 to 1	0.1 to 1
COc1cc2c(cc1-n1cc([C@@H]3CCCN3)nn1)N=C(N)C21CCC1 [Compound 195]	0.1 to 1	1 to 10
CNc1ccnc(Nc2ccc(OC)c(-n3cc(C4CC4)nn3)c2)n1 [Compound 176]	0.1 to 1	1 to 10
CNc1cc(C)nc(Nc2ccc(OC)c(-c3nc4n(n3)CCN(C)C4)c2)n1 [Compound 9]	> 10	> 10
CNc1cc(C2CCOCC2)c2cc(OC)c(-n3cc(C4CCCN4)nn3)cc2n1 (stereo not shown) [Compound 196]	0.1 to 1	1 to 10
CNc1cc(C)nc(Nc2ccc(OC)c(-c3cc4[nH]ccc4cn3)c2OC)n1 [Compound 220]	1 to 10	> 10
CNCc1cnn(-c2cc3nc(NC)n(C)c3cc2OC)c1 [Compound 179]	0.1 to 1	1 to 10
CNc1cc(C)nc(Nc2cccc(C(=O)Nc3cccnc3)c2)n1 [Compound 242]	> 10	> 10
CCNCc1cn(-c2cc(Nc3nccc(NC)n3)ccc2OC)nn1 [Compound 172]	0.1 to 1	1 to 10
CNc1cc(-c2cc(Nc3nc(C)cc(NC)n3)ccc2OC)nc(C)n1 [Compound 230]	< 0.1	1 to 10
CNc1cc(C)nc(Nc2ccc(OC)c(-c3cc(C4CC4)cnn3)c2)n1 [Compound 233]	0.1 to 1	1 to 10
CNc1cc(C)nc(Nc2ccc(OC)c(-n3cc4ccccc4n3)c2)n1 [Compound 146]	0.1 to 1	1 to 10
CNc1cc(C)nc(Nc2ccc(OC)c(-c3nnc(C)[nH]3)c2)n1 [Compound 11]	> 10	> 10
CNC1=Nc2cc(-c3[nH]c4cnccc4c3C)c(OC)cc2C12CCC2 [Compound 238, 5′-methoxy-N-methyl-6′-(3-methyl-1H-pyrrolo[2,3-c]pyridin-2-yl)spiro[cyclobutane-1,3′-indol]-2′-amine]	< 0.1	< 0.1
CNc1cc(C)nc(Nc2ccc(OC)c(-c3nc4n(n3)CCNC4)c2)n1 [Compound 8, 2-N-(4-methoxy-3-[4H,5H,6H,7H-[1,2,4]triazolo[1,5-a]pyrazin-2-yl]phenyl)-4-N,6-dimethylpyrimidine-2,4-diamine hydrochloride]	1 to 10	> 10
CNc1cc(C)nc(Nc2ccc(OC)c(-c3cn4ccnc4cn3)c2)n1 [Compound 234]	0.1 to 1	1 to 10

More lines, now with the values ahead:

IC50 [1] [µM]	IC50 [2] [µM]	SMILES
< 0.1	0.1 to 1	CNC1=Nc2cc(-n3cc([C@H]4CCCN4)nn3)c(OC)cc2C12CCC2 [Compound 192]
< 0.1	0.1 to 1	CNCc1cnn(-c2cc3c(cc2OC)C2(CCC2)C(NC)=N3)c1 [Compound 187]
< 0.1	0.1 to 1	CNc1cc(C)nc(Nc2ccc(OC)c(-c3cc4[nH]ccc4nc3C)c2)n1 [Compound 228]
< 0.1	0.1 to 1	CNc1cc(C)nc(Nc2ccc(OC)c(-c3cc4[nH]ccc4c(C)n3)c2)n1 [Compound 237]
< 0.1	0.1 to 1	COc1cc2c(cc1-n1cc(C3CCCN3)nn1)N=C(N)C21CCC1 (stereo not shown) [Compound 194]
< 0.1	< 0.1	CNc1cc(C)nc(Nc2ccc(OC)c(-c3cc4[nH]ccc4cn3)c2)n1 [Compound 206, N2-(4-methoxy-3-(1H-pyrrolo[3,2-c]pyridin-6-yl)phenyl)-N4,6-dimethylpyrimidine-2,4-diamine]
< 0.1	1 to 10	CNc1cc(C)nc(Nc2ccc(OC)c(-c3[nH]c4cnccc4c3F)c2)n1 [Compound 199]
< 0.1	0.1 to 1	COc1cc2c(cc1-n1cc([C@H]3CCCN3)nn1)N=C(N)C21CCC1 [Compound 193]
